According to US9487749B2 (priority 2009, dated 2016):
Values joined by “and” are separate entries in the source; they are usually repeats but may differ in a detail not shown here. Equal values may be shown once. “Also recorded” adds a separate entry of the source.

Key:
Aspergillus niger = assay: USP Antimicrobial Effectiveness Test (AET) of MSM supplemented TSB; type: cell-based; set-up: key to AET test results (microorganism count): Colonies too numerous to count (TNTC); conditions: for Log Reduction from Initial Microorganism Inoculum: 1:10 dilution of MSM, 14 Days, 28 Days; for AET test results (microorganism count): 48 hrs
Description: (§1) Compounds or formulated products having antimicrobial activity may be evaluated with the United States Pharmacopeia (USP) Antimicrobial Effectiveness Test (AET). The AET involves the addition of specified microorganisms (Candida albicans, Aspergillus niger, Escherichia coli, Pseudomonas aeruginosa and Staphylococcus aureus) directly to a test product at relatively high concentrations to simulate contamination. The product is held for one month, with weekly analysis of microorganism levels. […] For yeast and mold, no increase from the initial inoculums level is permitted. […] Inoculations were made using Candida albicans, Aspergillus niger, Escherichia coli, Pseudomonas aeruginosa and Staphylococcus aureus. Tryptic soy broth (TSB) was used as the culturing media. […] The inoculated media was held for one month, during which time the added microorganisms were enumerated weekly to determine if they were growing, dying off, or remaining near the initial inoculation level. […] The acceptance criteria for antimicrobial effectiveness are described in detail in the USP, herein incorporated by reference.

Candida albicans = assay: as above; type: cell-based; set-up: key to AET test results (microorganism count): Colonies too numerous to count (TNTC); conditions: for Log Reduction from Initial Microorganism Inoculum: 1:10 dilution of MSM, 14 Days, 28 Days; for AET test results (microorganism count): 48 hrs
Description: as §1

Staphylococcus aureus = assay: as above; type: cell-based; set-up: key to AET test results (microorganism count): Colonies too numerous to count (TNTC); conditions: for Log Reduction from Initial Microorganism Inoculum: 1:10 dilution of MSM, 14 Days, 28 Days; for AET test results (microorganism count): 48 hrs
Description: as §1

E. coli = E. coli log growth in MSM supplemented Müller-Hinton media with or without NaCl; type: cell-based, Escherichia coli
Method: Standard Müller-Hinton media was compared to Müller-Hinton media supplemented with NaCl to the same level as the saline-based media of Example 4. […] Aliquots of each culture were taken at 24 and 48 hours, as well as 7 days.

Lactobacillus rhamnosus = assay: Growth of Lactobacillus rhamnosus in MRS broth fortified with MSM; type: cell-based; conditions: for Growth (colony forming units): 0.04% MSM in MRS broth, 0-72 hours
Method: Each organism (Lactobacillus rhamnosus, Lactobacillus acidophilus, and Bifidobacterium bifidum) was grown in MRS bacterial growth medium (broth) and plated on MRS agar at different time intervals. Results are expressed in colony forming units per milliliter (cfu/mL). […] All bacterial organisms were incubated at 35° C. +/−2° C. for the duration of the study. […] All preparations and plating were conducted at room temperature. […] Test samples were plated in triplicate at each test date and the averages are reported.

[1] = tested on: Lactobacillus acidophilus; assay: Lactobacillus acidophilus milk growth in simulated gastric acid supplemented with MSM; type: cell-based; conditions: for Log Growth of L. acidophilus in milk average / Log Growth of L. acidophilus in milk in duplicate: simulated gastric acid pH 1.2
[2] = tested on: Lactobacillus acidophilus ATCC #4356; assay: Lactobacillus acidophilus growth and recovery in a simulated intestinal tract environment; type: cell-based
[3] = tested on: Swine-like H1N1 Influenza A virus strain A/California/04/2009; type: cell-based
[4] = tested on: Rhinovirus type 14 (ATCC #VR-284); type: cell-based
[5] = tested on: Escherichia coli (ATCC strain 8739); assay: E. coli growth profile in sterile and non-sterile MSM in TSB or saline (USP <51> AET basis, MacConkey agar streak); conditions: for Growth profile of E. coli: 5-16% MSM
Method: The USP <51> AET is a compendial (United States Pharmacopeia) antimicrobial effectiveness test method for determining if a preservative is effective based upon a verified and validated methodology.
All tubes except the negative controls were spiked with 250 μl of a 1.2×10^8 culture, which yields an initial E. coli population density of 1.2×10^6/mL. Tubes were incubated at 25° C.

`CS(C)(=O)=O` [MSM, Methylsulfonylmethane] was tested, and the “Log Reduction from Initial Microorganism Inoculum” value (Aspergillus niger; after 14 days) was 4.3 log, the “Log Reduction from Initial Microorganism Inoculum” value (Aspergillus niger; after 28 days) was 4.5 log and the “AET test results (microorganism count)” value (Aspergillus niger; 1:100 dilution of MSM in TSB) was “TNTC*”. The “AET test results (microorganism count)” value (Aspergillus niger; 1:1000 dilution of MSM in TSB) was “TNTC*”, the “Log Reduction from Initial Microorganism Inoculum” value (Candida albicans; after 14 days) was 4.2 log and the “Log Reduction from Initial Microorganism Inoculum” value (Candida albicans; after 28 days) was 4.4 log. For the same compound, the “AET test results (microorganism count)” value (Candida albicans; 1:100 dilution of MSM in TSB) was “TNTC”, the “AET test results (microorganism count)” value (Candida albicans; 1:1000 dilution of MSM in TSB) was “TNTC” and the “Log Reduction from Initial Microorganism Inoculum” value (Staphylococcus aureus; after 14 days) was 4.5 log. The “Log Reduction from Initial Microorganism Inoculum” value (Staphylococcus aureus; after 28 days) was 4.7 log, the “AET test results (microorganism count)” value (Staphylococcus aureus; 1:100 dilution of MSM in TSB) was “TNTC” and the “AET test results (microorganism count)” value (Staphylococcus aureus; 1:1000 dilution of MSM in TSB) was “TNTC”. The “log reduction in E. coli” value (E. coli; FMHS media, 12% MSM, 7 days) was 3 log, the “reduction of E. coli growth” value (E. coli; MSM concentrations greater than 13%, 48 hours) was 1-2 logs and the “Log growth of E. coli” value (E. coli; after 24 hours, FMH (flaked MSM, Müller-Hinton), rows 16-5% MSM) was 6.2 log. The “log reduction from the initial inoculum” value (E. coli; all media, MSM concentrations greater than 13%, 24 hours) was “approximately 1 log”, the “Growth (colony forming units)” value (Lactobacillus rhamnosus; 0 hours of incubation) was 1.7 × 10^6 cfu/mL and the “Growth (colony forming units)” value (Lactobacillus rhamnosus; 12 hours of incubation) was 2.1 × 10^7 cfu/mL. For the same compound, the “Growth (colony forming units)” value (Lactobacillus rhamnosus; 24 hours of incubation) was 1.5 × 10^9 cfu/mL, the “Growth (colony forming units)” value (Lactobacillus rhamnosus; 36 hours of incubation) was 1.8 × 10^9 cfu/mL and the “Growth (colony forming units)” value (Lactobacillus rhamnosus; 48 hours of incubation) was 2.1 × 10^9 cfu/mL. The “Growth (colony forming units)” value (Lactobacillus rhamnosus; 60 hours of incubation) was 2.6 × 10^9 cfu/mL, the “recovery higher than the 0% control” value (Lactobacillus rhamnosus; 0.2% MSM, first 12 hours) was 41% and the “recovery higher than the 0% control” value (Lactobacillus rhamnosus; 1% MSM, first 12 hours) was 47%. For the same compound, the “recovery more than the 0% control” value (Lactobacillus rhamnosus; all MSM samples, first 12 hours) was “at least 12%”, the “increase in log growth from previous time point” value ([1]; 5.0% MSM, 24 hours) was 0.23 logs and the “decrease in log growth from previous time point” value (from here on “decrease in log growth”) ([1]; 5.0% MSM, Hour 48) was 0.33 logs. For the same compound, the “Log Growth of L. acidophilus in milk average” value (“Log Growth … in milk average” for short) ([1]; 5% MSM, hour 0) was 0.41 log, the “Log Growth … in milk average” value ([1]; 5% MSM, hour 3) was 0.41 log and the “Log Growth of L. acidophilus in milk in duplicate” value (from here on “Log Growth … in duplicate”) ([1]; 5% MSM, hour 6) was 0.82 log and 1 log. The “Log Growth … in milk average” value ([1]; 5% MSM, hour 6) was 0.91 log, the “Log Growth … in duplicate” value ([1]; 5% MSM, hour 9) was 0.52 log and the “Log Growth … in milk average” value ([1]; 5% MSM, hour 9) was 0.52 log. For the same compound, the “Log Growth … in milk average” value ([1]; 5% MSM, hour 12) was 1.10 log, the “Log Growth … in duplicate” value ([1]; 5% MSM, hour 15) was 1.43 log and the “Log Growth … in milk average” value ([1]; 5% MSM, hour 15) was 1.43 log. For the same compound, the “Log Growth … in duplicate” value ([1]; 5% MSM, hour 24) was 1.67 log and 1.64 log, the “Log Growth … in milk average” value ([1]; 5% MSM, hour 24) was 1.66 log and the “Log Growth … in duplicate” value ([1]; 5% MSM, hour 48) was 1.22 log and 1.43 log. The “Log Growth … in milk average” value ([1]; 5% MSM, hour 48) was 1.33 log, the “log growth higher than control” value ([1]; 5.0% MSM, listed as order: hour 15, maximum vs control maximum) was 0.45 logs and 0.68 logs and the “increase in log growth from previous time point” value ([1]; […] MSM (so in the source), 24 hours) was 0.30 logs. The “decrease in log growth” value ([1]; […] MSM, 24 hours) was 0.11 logs, the “decrease in log growth” value ([1]; […] MSM, Hour 48) was 0.38 logs and the “Log Growth … in duplicate” value ([1]; […] MSM, hour 0) was 0 log. The “Log Growth … in milk average” value ([1]; […] MSM, hour 0) was 0 log, the “Log Growth … in milk average” value ([1]; […] MSM, hour 9) was 0.41 log and the “increase in logs from hour 15 to 24” value ([1]; […] and 5.0% MSM) was no less than 0.24 logs. For the same compound, the “log increase in the next 8 hours after hour 48” value ([2]; 5.0% MSM) was 3.16 logs, the “time to substantial growth rate increase after hour 24” value ([2]; 5.0% MSM) was 6 h and the “log growth of Lactobacillus acidophilus” value ([2]; 5.0% MSM, hour 36) was 8.65 logs. For the same compound, the “Log Growth of Lactobacillus acidophilus” value ([2]; 5.0% MSM, 20 min Gastric) was less than 1.00 log, the “Log Growth of Lactobacillus acidophilus” value ([2]; 5.0% MSM, Hour 3, simulated intestinal fluid) was 1.62 log and the “Log Growth of Lactobacillus acidophilus” value ([2]; 5.0% MSM, Hour 8, simulated intestinal fluid) was 2.33 log. For the same compound, the “Log Growth of Lactobacillus acidophilus” value ([2]; 5.0% MSM, Hour 24, simulated intestinal fluid) was 6.39 log, the “Log Growth of Lactobacillus acidophilus” value ([2]; 5.0% MSM, Hour 30, simulated intestinal fluid) was 6.63 log and the “Log Growth of Lactobacillus acidophilus” value ([2]; 5.0% MSM, Hour 36, simulated intestinal fluid) was 8.65 log. For the same compound, the “Log Growth of Lactobacillus acidophilus” value ([2]; 5.0% MSM, Hour 48, simulated intestinal fluid) was 10.17 log, the “Log Growth of Lactobacillus acidophilus” value ([2]; 5.0% MSM, Hour 54, simulated intestinal fluid) was 13.33 log and the “Log Growth of Lactobacillus acidophilus” value ([2]; 5.0% MSM, Hour 60, simulated intestinal fluid) was 12.76 log. For the same compound, the “Log Growth of Lactobacillus acidophilus” value ([2]; 5.0% MSM, Hour 72, simulated intestinal fluid) was 12.78 log, the “Log Growth of Lactobacillus acidophilus” value ([2]; 5.0% MSM, Starting Inoculum (milk)) was 7.02 log and the “log increase in the next 8 hours after hour 48” value ([2]; […] MSM) was 2.07 logs. For the same compound, the “Log Growth of Lactobacillus acidophilus” value ([2]; […] MSM, 20 min Gastric) was less than 1.00 log, the “Log Growth of Lactobacillus acidophilus” value ([2]; […] MSM, Starting Inoculum (milk)) was 6.86 log and the “Average Log Stimulation” value [3] was 0.17 log10. The “Average Percent Stimulation” value [3] was 32.39%, the “Average TCID50” value [3] was 3.67 log10 and 4.42 log10 and 4.67 log10 and 5.00 log10 and 4.58 log10 and 4.17 log10 and the “Log Stimulation” value [3] was 0.17 log10. For the same compound, the “Percent Stimulation” value [3] was 32.39%, the TCID50 [3] was 3.75 log10 and 3.50 log10 and 4.00 log10 and 4.50 log10 and 4.25 log10 and 4.75 log10 and 5.00 log10 and the “log10 reduction” value [3] was 0.66 log10 and 0.41 log10. The “reduction of virus population” value [3] was “more than 1.0 log10”, the “Average Log Stimulation” value [4] was 0.053 log10 and 0.11 log10 and the “Average Percent Stimulation” value [4] was 11.49% and 22.38%. For the same compound, the “Average TCID50” value [4] was 4.42 log10 and 5.00 log10 and 5.58 log10 and 5.42 log10 and 5.67 log10 and 5.25 log10, the “Log Stimulation” value [4] was 0.08 log10 and 0.00 log10 and 0.17 log10 and the TCID50 [4] was 4.25 log10 and 4.50 log10 and 4.75 log10 and 5.00 log10 and 5.25 log10 and 5.50 log10 and 6.00 log10 and 5.75 log10. For the same compound, the “visual signs of growth in culture tubes” value ([5]; 5-9% MSM in TSB/TSBA media, 24 hours) was “visible signs of growth”, the “visual signs of growth in culture tubes” value ([5]; 5-10% MSM in TSB/TSBA, 48 hours, 72 hours) was “signs of heavy growth” and the “visual signs of growth in culture tubes” value ([5]; 10-16% MSM in TSB/TSBA media, 24 hours) was “no signs of growth”. The “visual signs of growth in culture tubes” value ([5]; 11% MSM in TSB/TSBA, 48 hours, 72 hours) was “Apparent growth”, the “visual signs of growth in culture tubes” value ([5]; 12-15% MSM in TSB/TSBA, 48 hours, 72 hours) was “little to no observable signs of growth” and the “visual signs of growth in culture tubes” value ([5]; MSM in saline tubes, 24 hours) was “did not show any signs of growth”. The “Growth profile of E. coli” value ([5]; after 24 hours, NS (sterile saline added to non-sterile MSM)) was “Heavy; also recorded: Moderate”, the “Growth profile of E. coli” value ([5]; after 24 hours, NSA (saline + MSM, then sterilized)) was “Heavy; also recorded: Moderate” and the “Growth profile of E. coli” value ([5]; after 24 hours, TSB (sterile TSB added to non-sterile MSM)) was “Heavy and Moderate and Few”. For the same compound, the “Growth profile of E. coli” value ([5]; after 24 hours, TSBA (TSB + MSM, then sterilized)) was “Heavy and Moderate and Few”, the “Growth profile of E. coli” value ([5]; after 48 hours, NS) was “Heavy; also recorded: Moderate” and the “Growth profile of E. coli” value ([5]; after 48 hours, NSA) was “Heavy; also recorded: Moderate”. The “Growth profile of E. coli” value ([5]; after 48 hours, TSB) was “Heavy and Moderate and Few”, the “Growth profile of E. coli” value ([5]; after 48 hours, TSBA) was “Heavy and Moderate and Few” and the “Growth profile of E. coli” value ([5]; after 72 hours, NS) was “Heavy; also recorded: Moderate”. For the same compound, the “Growth profile of E. coli” value ([5]; after 72 hours, NSA) was “Heavy; also recorded: Moderate”, the “Growth profile of E. coli” value ([5]; after 72 hours, TSB) was “Heavy and Moderate and Few” and the “Growth profile of E. coli” value ([5]; after 72 hours, TSBA) was “Heavy and Moderate and Few”.
